Data taken from ChEMBL document CHEMBL1201862, “PubChem BioAssay data set” (2004).
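Five concentrations, 48 hours, 96-well plates. GI50 marks 50% less growth.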 The source made the active and inactive calls. Rule as the data show it: active = GI50 up to about 1.1 µM and inactive = higher.

Columns and labels:
Assay in all cases: NCI-60 cell line screen, 48 h
SNB-75 = test system: SNB-75
SK-MEL-5 = test system: SK-MEL-5
ACHN = test system: ACHN
SF-295 = test system: SF-295
Malme-3M = test system: Malme-3M
SF-539 = test system: SF-539
T47D = test system: T47D
OVCAR-3 = test system: OVCAR-3
MDA-MB-435 = test system: MDA-MB-435
UACC-62 = test system: UACC-62
NCI-H226 = test system: NCI-H226
UACC-257 = test system: UACC-257
HOP-92 = test system: HOP-92
SF-268 = test system: SF-268
KM12 = test system: KM12
SN12C = test system: SN12C
NCI-H460 = test system: NCI-H460
SNB-19 = test system: SNB-19
HL-60 = test system: HL-60

Structure (SMILES) | GI50 (SNB-75) | GI50 (SK-MEL-5) | GI50 (ACHN) | GI50 (SF-295) | GI50 (Malme-3M) | GI50 (SF-539) | GI50 (T47D) | GI50 (OVCAR-3) | GI50 (MDA-MB-435) | GI50 (UACC-62) | GI50 (NCI-H226) | GI50 (UACC-257) | GI50 (HOP-92) | GI50 (SF-268) | GI50 (KM12) | GI50 (SN12C) | GI50 (NCI-H460) | GI50 (SNB-19) | GI50 (HL-60)
Cc1nc(N)nc(N)c1N1CCN(Cc2ccccc2)CC1 | > 52.5 µM (inactive) | > 37.8 µM (inactive) | 12.6 µM (inactive) | 7.06 µM (inactive) | 14.2 µM (inactive) | 27.2 µM (inactive) | > 100 µM (inactive) | 47.8 µM (inactive) | 11.4 µM (inactive) | 30.5 µM (inactive) | 12.1 µM (inactive) | 9.64 µM (inactive) | 35.3 µM (inactive) | 16.1 µM (inactive) | 27 µM (inactive) | 56.1 µM (inactive) | 5.87 µM (inactive) | 55.5 µM (inactive) | 25.1 µM (inactive)
CN(C)c1ccc(C=C2C(=O)NC(=S)NC2=O)c2ccccc12 | 30.1 µM (inactive) | > 100 µM (inactive) | > 100 µM (inactive) | > 100 µM (inactive) | 49.9 µM (inactive) | 36 µM (inactive) | > 100 µM (inactive) | 50.9 µM (inactive) | 38.9 µM (inactive) | > 100 µM (inactive) | > 100 µM (inactive) | > 100 µM (inactive) | 25.1 µM (inactive) | 29 µM (inactive) | > 100 µM (inactive) | 68.4 µM (inactive) | > 100 µM (inactive) | 61.2 µM (inactive) | 33.7 µM (inactive)
Cc1cn(C2CC(Br)C(COC(c3ccccc3)(c3ccccc3)c3ccccc3)O2)c(=O)[nH]c1=O (configuration not stated) | 11.5 µM (inactive) | 12.7 µM (inactive) | 13.8 µM (inactive) | 9.68 µM (inactive) | 17.6 µM (inactive) | 17.2 µM (inactive) | 12.3 µM (inactive) | 12.6 µM (inactive) | 14.7 µM (inactive) | 12.2 µM (inactive) | 19.2 µM (inactive) | 16.1 µM (inactive) | 11.2 µM (inactive) | 13.8 µM (inactive) | 6.71 µM (inactive) | 14.7 µM (inactive) |  | 16.3 µM (inactive) | 4.76 µM (inactive)
O=C(Nc1c(Cl)cccc1Cl)c1c(Cl)c(Cl)c(Cl)c(Cl)c1-c1nc2ccccc2[nH]1 | 0.313 µM (active) | 29.9 µM (inactive) | 50.1 µM (inactive) | 0.0468 µM (active) | > 100 µM (inactive) | 0.535 µM (active) | 28 µM (inactive) | 25.4 µM (inactive) | 38.2 µM (inactive) | 25.4 µM (inactive) | 14.5 µM (inactive) | > 100 µM (inactive) | 29.9 µM (inactive) | 63.7 µM (inactive) | 0.155 µM (active) | 49.5 µM (inactive) | > 100 µM (inactive) |  | > 100 µM (inactive)
Cc1c(-c2nc(N)c(C#N)c(N)c2C#N)c(=O)oc2ccccc12 | > 100 µM (inactive) | 87.5 µM (inactive) | > 100 µM (inactive) | 70 µM (inactive) | > 100 µM (inactive) | > 100 µM (inactive) | 89.5 µM (inactive) | > 100 µM (inactive) | > 10 µM (inactive) | > 100 µM (inactive) | > 100 µM (inactive) | > 100 µM (inactive) | > 100 µM (inactive) | > 100 µM (inactive) | 68.4 µM (inactive) | > 100 µM (inactive) | > 100 µM (inactive) | > 100 µM (inactive) | 63.5 µM (inactive)
Cc1nc(N)c(N2CCN(C(=O)O)CC2)c(O)n1 | > 100 µM (inactive) |  | > 100 µM (inactive) | > 100 µM (inactive) | > 100 µM (inactive) | > 100 µM (inactive) | > 100 µM (inactive) | > 100 µM (inactive) | > 100 µM (inactive) |  | > 100 µM (inactive) | > 100 µM (inactive) | > 100 µM (inactive) | > 100 µM (inactive) | > 100 µM (inactive) | > 100 µM (inactive) | > 100 µM (inactive) | > 100 µM (inactive) | > 100 µM (inactive)
OC1C2CCCCN2C[C@@H](O)[C@H]1O (some centres not stated) | > 100 µM (inactive) | > 100 µM (inactive) | > 100 µM (inactive) | > 100 µM (inactive) | > 100 µM (inactive) | > 100 µM (inactive) | > 100 µM (inactive) | > 100 µM (inactive) | > 100 µM (inactive) | > 100 µM (inactive) | > 100 µM (inactive) | > 100 µM (inactive) | > 100 µM (inactive) | > 100 µM (inactive) | > 100 µM (inactive) | > 100 µM (inactive) | > 100 µM (inactive) | > 100 µM (inactive) | > 100 µM (inactive)
O=c1c(Cc2ccccc2)c(-c2ccccc2)[nH]n1C1=NCCN1 | 22 µM (inactive) | 32.4 µM (inactive) | 29.3 µM (inactive) | 43.6 µM (inactive) | 25.4 µM (inactive) | 58.1 µM (inactive) | 45.3 µM (inactive) | 24.4 µM (inactive) | 24.8 µM (inactive) | 32.2 µM (inactive) | 46 µM (inactive) | 52.6 µM (inactive) | 44.7 µM (inactive) | 28.4 µM (inactive) | 61 µM (inactive) |  | 16.9 µM (inactive) | 76.4 µM (inactive) | 15.1 µM (inactive)
